Experimental findings from patent publication US20250163104A1, “MACROCYCLIC IMMUNOMODULATORS” (priority 2021, published 2025) are described below.

Where a SMILES comes first, the peptide text is derived from it. Bridges are numbered along the chain shown (N, C = ends). [ ]: non-standard residue; d: D form. The star is where a group is joined. Phe(4-COOH) = N[C@@H](Cc1ccc(C(=O)O)cc1)C(=O)O; Bip = N[C@@H](Cc1ccc(-c2ccccc2)cc1)C(=O)O; 4Pal = N[C@@H](Cc1ccncc1)C(=O)O; Cha = N[C@@H](CC1CCCCC1)C(=O)O; Carboxymethyl = O=C(O)C*; Nle = CCCC[C@H](N)C(=O)O; Orn = NCCC[C@H](N)C(=O)O; Dab = NCC[C@H](N)C(=O)O; Dap = NC[C@H](N)C(=O)O

T1 sequence (Q15116 25-288): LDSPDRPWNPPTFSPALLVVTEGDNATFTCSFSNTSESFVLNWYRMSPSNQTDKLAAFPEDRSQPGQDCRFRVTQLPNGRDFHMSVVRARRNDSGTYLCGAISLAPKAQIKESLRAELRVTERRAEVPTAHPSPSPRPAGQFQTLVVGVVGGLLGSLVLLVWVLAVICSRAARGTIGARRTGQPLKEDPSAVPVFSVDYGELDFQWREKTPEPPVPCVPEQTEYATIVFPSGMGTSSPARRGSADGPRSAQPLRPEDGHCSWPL

One test concerns the target T1, human PD-1 / PD-L1-Ig binding on Jurkat cell line over-expressing human PD-1 (Jurkat-PD-1) (Homo sapiens, UniProt Q15116).
T1 construct: expressed in transfected cells; host or cells: Jurkat
The experiment in a line: Jurkat-PD-1 Cell Binding High-Content Screening Assay (CBA). The format is cell-based. The conditions noted are these: Jurkat HPD1_PDL1 IC50, Jurkat-PD-1 cells, PE-labeled PD-L1-Ig 20 nM final. The procedure, abridged: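 Jurkat-hPD-1 cells in DMEM with 10% fetal calf serum receive test compound and are held at 37° C for 2 h. PE-labeled PD-L1-Ig is added at 20 nM final and left for 1 hour. Cells are then fixed and Hoechst-stained, and binding is measured by imaging.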
Take `CC(C)C[C@@H]1NC(=O)[C@H](Cc2c[nH]c3ccccc23)NC(=O)[C@H](CC(=O)O)NC(=O)[C@H](Cc2ccc(OCC(=O)O)cc2)NC(=O)[C@H](CN)NC(=O)CSC[C@@H](C(=O)NCC(N)=O)NC(=O)[C@H](CO)NC(=O)[C@H](C(C)C)NC(=O)[C@H](CC2CCCCC2)NC(=O)[C@H](CC(N)=O)NC(=O)[C@@H](CC(C)C)NC(=O)[C@H](CN)NC(=O)[C@H](C(C)C)NC(=O)[C@H](Cc2ccc(-c3ccccc3)cc2)NC1=O` [Compound 1394] ({CH2CO}-[Dap]Y(Carboxymethyl)DWL[Bip]V[Dap][dL]N[Cha]VSCG-NH2; thioether N-14): the IC50 amounted to 7.6 nM.

The same test, now with this note: Jurkat-PD-1 cells, PE-labeled PD-L1-Ig 20 nM final; read-out: Jurkat HPD1_PDL1 IC50.
For the molecule `CC(C)C[C@H]1NC(=O)[C@H](CCCN)NC(=O)[C@H](CCCN)NC(=O)[C@H](Cc2ccc(-c3ccccc3)cc2)NC(=O)[C@H](C(C)C)NC(=O)[C@H](Cc2c[nH]c3ccccc23)NC(=O)[C@H](CC(=O)O)NC(=O)[C@H](Cc2ccc(C(=O)O)cc2)NC(=O)[C@H](Cc2ccc(OCC(=O)O)cc2)NC(=O)CSC[C@@H](C(=O)N[C@@H](C)C(N)=O)NC(=O)[C@H]([C@@H](C)O)NC(=O)[C@H](C(C)C)NC(=O)[C@H](CC2CCCCC2)NC(=O)[C@H](CCN)NC1=O` [Compound 1382] ({CH2CO}-Y(Carboxymethyl)[Phe(4-COOH)]DWV[Bip][Orn][Orn][dL][Dab][Cha]VTCA-NH2; thioether N-14), the IC50 stood at 14 nM.

Take `CC(C)C[C@H]1NC(=O)[C@H](CCCN)NC(=O)[C@H](CCN)NC(=O)[C@H](Cc2ccc(-c3ccccc3)cc2)NC(=O)[C@H](C(C)C)NC(=O)[C@H](Cc2c[nH]c3ccccc23)NC(=O)[C@H](CC(=O)O)NC(=O)[C@H](Cc2ccc(C(=O)O)cc2)NC(=O)[C@H](Cc2ccc(OCC(=O)O)cc2)NC(=O)CSC[C@@H](C(=O)N[C@@H](C)C(N)=O)NC(=O)[C@H]([C@@H](C)O)NC(=O)[C@H](C(C)C)NC(=O)[C@H](CC2CCCCC2)NC(=O)[C@H](CCN)NC1=O` [Compound 1383]: the concentration for half-maximal inhibition (IC50) is 19.1 nM.

For the molecule `CC(C)C[C@H]1NC(=O)[C@H](CCCN)NC(=O)[C@H](CN)NC(=O)[C@H](Cc2ccc(-c3ccccc3)cc2)NC(=O)[C@H](C(C)C)NC(=O)[C@H](Cc2c[nH]c3ccccc23)NC(=O)[C@H](CC(=O)O)NC(=O)[C@H](Cc2ccc(C(=O)O)cc2)NC(=O)[C@H](Cc2ccc(OCC(=O)O)cc2)NC(=O)CSC[C@@H](C(=O)N[C@@H](C)C(N)=O)NC(=O)[C@H]([C@@H](C)O)NC(=O)[C@H](C(C)C)NC(=O)[C@H](CC2CCCCC2)NC(=O)[C@H](CCN)NC1=O` [Compound 1384], the half-inhibitory concentration (IC50) was 11 nM.

Regarding `CC(C)C[C@H]1NC(=O)[C@H](CCCN)NC(=O)[C@H](CCCCN)NC(=O)[C@H](Cc2ccc(-c3ccccc3)cc2)NC(=O)[C@H](C(C)C)NC(=O)[C@H](Cc2c[nH]c3ccccc23)NC(=O)[C@H](CC(=O)O)NC(=O)[C@H](Cc2ccc(C(=O)O)cc2)NC(=O)[C@H](Cc2ccc(OCC(=O)O)cc2)NC(=O)CSC[C@@H](C(=O)N[C@@H](C)C(N)=O)NC(=O)[C@H]([C@@H](C)O)NC(=O)[C@H](C(C)C)NC(=O)[C@H](CC2CCCCC2)NC(=O)[C@H](CCN)NC1=O` [Compound 1385] ({CH2CO}-Y(Carboxymethyl)[Phe(4-COOH)]DWV[Bip]K[Orn][dL][Dab][Cha]VTCA-NH2; thioether N-14), the IC50 came to 6.1 nM.

`CC(C)C[C@H]1NC(=O)[C@H](CCCN)NC(=O)[C@H](CCCN)NC(=O)[C@H](Cc2ccc(-c3ccccc3)cc2)NC(=O)[C@H](C(C)C)NC(=O)[C@H](Cc2c[nH]c3ccccc23)NC(=O)[C@H](CC(=O)O)NC(=O)[C@H](Cc2ccncc2)NC(=O)[C@H](CN)NC(=O)CSC[C@@H](C(=O)N[C@@H](C)C(N)=O)NC(=O)[C@H]([C@@H](C)O)NC(=O)[C@H](C(C)C)NC(=O)[C@H](CC2CCCCC2)NC(=O)[C@H](CCN)NC1=O` [Compound 1386] ({CH2CO}-[Dap][4Pal]DWV[Bip][Orn][Orn][dL][Dab][Cha]VTCA-NH2; thioether N-14): the IC50 turned out to be 10.8 nM.

For `CC(C)C[C@H]1NC(=O)[C@H](CCCN)NC(=O)[C@H](CCN)NC(=O)[C@H](Cc2ccc(-c3ccccc3)cc2)NC(=O)[C@H](C(C)C)NC(=O)[C@H](Cc2c[nH]c3ccccc23)NC(=O)[C@H](CC(=O)O)NC(=O)[C@H](Cc2ccncc2)NC(=O)[C@H](CN)NC(=O)CSC[C@@H](C(=O)N[C@@H](C)C(N)=O)NC(=O)[C@H]([C@@H](C)O)NC(=O)[C@H](C(C)C)NC(=O)[C@H](CC2CCCCC2)NC(=O)[C@H](CCN)NC1=O` [Compound 1387], the IC50 is 24.9 nM.

With `CC(C)C[C@H]1NC(=O)[C@H](CCCN)NC(=O)[C@H](CN)NC(=O)[C@H](Cc2ccc(-c3ccccc3)cc2)NC(=O)[C@H](C(C)C)NC(=O)[C@H](Cc2c[nH]c3ccccc23)NC(=O)[C@H](CC(=O)O)NC(=O)[C@H](Cc2ccncc2)NC(=O)[C@H](CN)NC(=O)CSC[C@@H](C(=O)N[C@@H](C)C(N)=O)NC(=O)[C@H]([C@@H](C)O)NC(=O)[C@H](C(C)C)NC(=O)[C@H](CC2CCCCC2)NC(=O)[C@H](CCN)NC1=O` [Compound 1388], the IC50 was found to be 26 nM.

With `CC(C)C[C@H]1NC(=O)[C@H](CCCN)NC(=O)[C@H](CCCCN)NC(=O)[C@H](Cc2ccc(-c3ccccc3)cc2)NC(=O)[C@H](C(C)C)NC(=O)[C@H](Cc2c[nH]c3ccccc23)NC(=O)[C@H](CC(=O)O)NC(=O)[C@H](Cc2ccncc2)NC(=O)[C@H](CN)NC(=O)CSC[C@@H](C(=O)N[C@@H](C)C(N)=O)NC(=O)[C@H]([C@@H](C)O)NC(=O)[C@H](C(C)C)NC(=O)[C@H](CC2CCCCC2)NC(=O)[C@H](CCN)NC1=O` [Compound 1389] ({CH2CO}-[Dap][4Pal]DWV[Bip]K[Orn][dL][Dab][Cha]VTCA-NH2; thioether N-14), the concentration for half-maximal inhibition (IC50) is 8.5 nM.

`CC(C)C[C@H]1NC(=O)[C@H](CCCN)NC(=O)[C@H](CCCN)NC(=O)[C@H](Cc2ccc(-c3ccccc3)cc2)NC(=O)[C@H](C(C)C)NC(=O)[C@H](Cc2c[nH]c3ccccc23)NC(=O)[C@H](CC(=O)O)NC(=O)[C@H](Cc2ccc(OCC(=O)O)cc2)NC(=O)[C@H](Cc2ccncc2)NC(=O)CSC[C@@H](C(=O)N[C@@H](C)C(N)=O)NC(=O)[C@H]([C@@H](C)O)NC(=O)[C@H](C(C)C)NC(=O)[C@H](CC2CCCCC2)NC(=O)[C@H](CCN)NC1=O` [Compound 1390]: the concentration for half-maximal inhibition (IC50) was 16.5 nM.

With `CC[C@H](C)[C@@H]1NC(=O)[C@H](Cc2ccc(-c3ccccc3)cc2)NC(=O)[C@H](C(C)C)NC(=O)[C@H](Cc2c[nH]c3ccccc23)NC(=O)[C@H](CC(=O)O)NC(=O)[C@H](Cc2ccc(OCC(=O)O)cc2)NC(=O)[C@H](CN)NC(=O)CSC[C@@H](C(=O)N[C@@H](C)C(N)=O)NC(=O)[C@H]([C@@H](C)O)NC(=O)[C@H](C(C)C)NC(=O)[C@H](CC2CCCCC2)NC(=O)[C@H](CCN)NC(=O)[C@@H](CC(C)C)NC(=O)[C@H](CCCN)NC1=O` [Compound 1391], the IC50 is 5 nM.

Consider `CC(C)C[C@@H]1NC(=O)[C@H](Cc2c[nH]c3ccccc23)NC(=O)[C@H](CC(=O)O)NC(=O)[C@H](Cc2ccc(O)cc2)NC(=O)[C@H](Cc2ccccc2)NC(=O)CSC[C@@H](C(=O)NCC(N)=O)NC(=O)[C@H](CO)NC(=O)[C@H](C(C)C)NC(=O)[C@H](CC2CCCCC2)NC(=O)[C@H](CC(N)=O)NC(=O)[C@@H](CC(C)C)NC(=O)[C@H](CN)NC(=O)[C@H](C(C)C)NC(=O)[C@H](Cc2ccc(-c3ccccc3)cc2)NC1=O` [Compound 1392] ({CH2CO}-FYDWL[Bip]V[Dap][dL]N[Cha]VSCG-NH2; thioether N-14), for which the IC50 is 78.1 nM.

For the molecule `CC(C)C[C@@H]1NC(=O)[C@H](Cc2c[nH]c3ccccc23)NC(=O)[C@H](CC(=O)O)NC(=O)[C@H](Cc2ccc(C(=O)O)cc2)NC(=O)[C@H](Cc2ccc(OCC(=O)O)cc2)NC(=O)CSC[C@@H](C(=O)NCC(N)=O)NC(=O)[C@H](CO)NC(=O)[C@H](C(C)C)NC(=O)[C@H](CC2CCCCC2)NC(=O)[C@H](CC(N)=O)NC(=O)[C@@H](CC(C)C)NC(=O)[C@H](CN)NC(=O)[C@H](C(C)C)NC(=O)[C@H](Cc2ccc(-c3ccccc3)cc2)NC1=O` [Compound 1393] ({CH2CO}-Y(Carboxymethyl)[Phe(4-COOH)]DWL[Bip]V[Dap][dL]N[Cha]VSCG-NH2; thioether N-14), the IC50 stood at 25.3 nM.

`CC(C)C[C@@H]1NC(=O)[C@H](Cc2c[nH]c3ccccc23)NC(=O)[C@H](CC(=O)O)NC(=O)[C@H](Cc2ccncc2)NC(=O)[C@H](CN)NC(=O)CSC[C@@H](C(=O)NCC(N)=O)NC(=O)[C@H](CO)NC(=O)[C@H](C(C)C)NC(=O)[C@H](CC2CCCCC2)NC(=O)[C@H](CC(N)=O)NC(=O)[C@@H](CC(C)C)NC(=O)[C@H](CN)NC(=O)[C@H](C(C)C)NC(=O)[C@H](Cc2ccc(-c3ccccc3)cc2)NC1=O` [Compound 1395] ({CH2CO}-[Dap][4Pal]DWL[Bip]V[Dap][dL]N[Cha]VSCG-NH2; thioether N-14): the half-inhibitory concentration (IC50) worked out at 10.1 nM.

On to `CC(C)C[C@@H]1NC(=O)[C@H](Cc2c[nH]c3ccccc23)NC(=O)[C@H](CC(=O)O)NC(=O)[C@H](Cc2ccncc2)NC(=O)[C@H](Cc2ccc(OCC(=O)O)cc2)NC(=O)CSC[C@@H](C(=O)NCC(N)=O)NC(=O)[C@H](CO)NC(=O)[C@H](C(C)C)NC(=O)[C@H](CC2CCCCC2)NC(=O)[C@H](CC(N)=O)NC(=O)[C@@H](CC(C)C)NC(=O)[C@H](CN)NC(=O)[C@H](C(C)C)NC(=O)[C@H](Cc2ccc(-c3ccccc3)cc2)NC1=O` [Compound 1396] ({CH2CO}-Y(Carboxymethyl)[4Pal]DWL[Bip]V[Dap][dL]N[Cha]VSCG-NH2; thioether N-14), for which the IC50 was found to be 21.4 nM.

In the case of `CCCC[C@@H]1NC(=O)[C@H](CC(N)=O)NC(=O)[C@@H](CC(C)C)NC(=O)[C@H](CN)NC(=O)[C@H](C(C)C)NC(=O)[C@H](Cc2ccc(-c3ccccc3)cc2)NC(=O)[C@H](CC(C)C)NC(=O)[C@H](Cc2c[nH]c3ccccc23)NC(=O)[C@H](CC(=O)O)NC(=O)[C@H](Cc2ccc(O)cc2)NC(=O)[C@H](Cc2ccccc2)NC(=O)CSC[C@@H](C(=O)NCC(N)=O)NC(=O)[C@H](CO)NC(=O)[C@H](C(C)C)NC1=O` [Compound 1397] ({CH2CO}-FYDWL[Bip]V[Dap][dL]N[Nle]VSCG-NH2; thioether N-14), the IC50 is 55.3 nM.
